A word on the inhibition: it is the drop in the measured response relative to a control, in per cent.

The values below come from patent US5468734A, “Prophylactic and remedial preparation for diseases attendant on hyperglycemia, and wholesome food” (Godo Shusei Co., Ltd., priority 1992, dated 1995).

In assay [1] the test system is maltase (carbohydrase derived from rabbit small intestine mucous membrane). In words: Action to inhibit the hydrolytic activity of homogenate prepared from rabbit small intestine mucous membrane: maltase inhibition. It is filed as biochemical. Particulars: for Maltase inhibition rate: substrate maltose 20 mM, pH 6.8, 37° C., 15 minutes. As for the experimental part: (§1) (Action to inhibit the hydrolytic activity of homogenate prepared from rabbit small intestine mucous membrane to carbohydrate)
(§2) A native kind of white rabbits (weight: 3.0-3.5 kg) were sacrificed by exsanguination to take out their small intestines.
(§3) After freezing and thawing the small intestines thus taken out, they were homogenized in a 5 mM EDTA buffer (pH: 7.0) and subjected to centrifugation for 60 minutes at 60,000×g. Precipitate thus formed was collected and suspended again in a 10 mM potassium phosphate buffer (pH: 7.0), thereby obtaining a crude enzyme suspension.
(§4) Sucrose (20 mM) and maltose (20 mM) were used as substrates.
(§5) Each reaction mixture was formulated so as to contain 350 microliters of a 100 mM maleate buffer (pH: 6.8), 100 microliters of a substrate solution, 50 microliters of the crude enzyme suspension and 50 microliters of a test solution. Substances to be tested were separately dissolved in a maleate buffer (pH: 6.8) before use.
(§6) Respective reactions were conducted for 15 minutes at 37° C.

Assay [2] addresses T1, sucrase (carbohydrase derived from rabbit small intestine mucous membrane) (Oryctolagus cuniculus, UniProt P07768).
T1 construct: suspended again in a 10 mM potassium phosphate buffer (pH: 7.0), thereby obtaining a crude enzyme suspension; from tissue; host or cells: rabbit small intestine (title: mucous membrane), homogenate, 60,000×g precipitate
In words: Action to inhibit the hydrolytic activity of homogenate prepared from rabbit small intestine mucous membrane: sucrase inhibition. The format is biochemical. To be noted: for inhibition at 2000 µg/mL / inhibition at 500 µg/mL / inhibition at 1000 µg/mL / inhibition at 4000 µg/mL: 0.25 h. As for the experimental part: as §1, §2, §3, §4, §5, §6

Setting [3] is: 200 mg/dl, substrate sucrose 20 mM, pH 6.8, 37° C., 15 minutes, read-out: Sucrase inhibition rate.
Where [4] appears, read: pH 6.8, read-out: Sucrase inhibition rate.

Read-outs that look alike come from different tables or passages of the source.

T1 sequence (P07768 1008-1827 limits assumed): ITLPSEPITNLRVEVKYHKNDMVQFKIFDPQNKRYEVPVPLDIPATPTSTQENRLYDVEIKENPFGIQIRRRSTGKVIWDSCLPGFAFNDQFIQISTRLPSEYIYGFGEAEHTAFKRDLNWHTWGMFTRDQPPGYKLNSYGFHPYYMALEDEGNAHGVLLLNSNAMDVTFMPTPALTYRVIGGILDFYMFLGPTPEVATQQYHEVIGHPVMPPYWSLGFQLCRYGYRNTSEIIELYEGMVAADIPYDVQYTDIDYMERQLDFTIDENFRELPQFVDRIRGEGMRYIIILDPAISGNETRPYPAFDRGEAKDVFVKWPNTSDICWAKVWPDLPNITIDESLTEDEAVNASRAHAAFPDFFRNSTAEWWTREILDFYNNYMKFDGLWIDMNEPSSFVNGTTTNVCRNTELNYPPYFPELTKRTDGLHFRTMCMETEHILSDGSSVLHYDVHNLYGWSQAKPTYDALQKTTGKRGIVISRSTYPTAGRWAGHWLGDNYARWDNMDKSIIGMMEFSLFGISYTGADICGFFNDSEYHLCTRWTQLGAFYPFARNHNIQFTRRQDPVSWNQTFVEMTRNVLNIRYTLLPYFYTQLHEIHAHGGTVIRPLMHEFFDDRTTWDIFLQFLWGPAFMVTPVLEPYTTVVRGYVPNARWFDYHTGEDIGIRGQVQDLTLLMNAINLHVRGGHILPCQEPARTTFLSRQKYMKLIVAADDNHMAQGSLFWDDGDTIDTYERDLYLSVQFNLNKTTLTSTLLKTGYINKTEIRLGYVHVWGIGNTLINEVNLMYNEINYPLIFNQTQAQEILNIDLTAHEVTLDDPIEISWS
T1 sequence (P07768 2-1007 partner limits assumed): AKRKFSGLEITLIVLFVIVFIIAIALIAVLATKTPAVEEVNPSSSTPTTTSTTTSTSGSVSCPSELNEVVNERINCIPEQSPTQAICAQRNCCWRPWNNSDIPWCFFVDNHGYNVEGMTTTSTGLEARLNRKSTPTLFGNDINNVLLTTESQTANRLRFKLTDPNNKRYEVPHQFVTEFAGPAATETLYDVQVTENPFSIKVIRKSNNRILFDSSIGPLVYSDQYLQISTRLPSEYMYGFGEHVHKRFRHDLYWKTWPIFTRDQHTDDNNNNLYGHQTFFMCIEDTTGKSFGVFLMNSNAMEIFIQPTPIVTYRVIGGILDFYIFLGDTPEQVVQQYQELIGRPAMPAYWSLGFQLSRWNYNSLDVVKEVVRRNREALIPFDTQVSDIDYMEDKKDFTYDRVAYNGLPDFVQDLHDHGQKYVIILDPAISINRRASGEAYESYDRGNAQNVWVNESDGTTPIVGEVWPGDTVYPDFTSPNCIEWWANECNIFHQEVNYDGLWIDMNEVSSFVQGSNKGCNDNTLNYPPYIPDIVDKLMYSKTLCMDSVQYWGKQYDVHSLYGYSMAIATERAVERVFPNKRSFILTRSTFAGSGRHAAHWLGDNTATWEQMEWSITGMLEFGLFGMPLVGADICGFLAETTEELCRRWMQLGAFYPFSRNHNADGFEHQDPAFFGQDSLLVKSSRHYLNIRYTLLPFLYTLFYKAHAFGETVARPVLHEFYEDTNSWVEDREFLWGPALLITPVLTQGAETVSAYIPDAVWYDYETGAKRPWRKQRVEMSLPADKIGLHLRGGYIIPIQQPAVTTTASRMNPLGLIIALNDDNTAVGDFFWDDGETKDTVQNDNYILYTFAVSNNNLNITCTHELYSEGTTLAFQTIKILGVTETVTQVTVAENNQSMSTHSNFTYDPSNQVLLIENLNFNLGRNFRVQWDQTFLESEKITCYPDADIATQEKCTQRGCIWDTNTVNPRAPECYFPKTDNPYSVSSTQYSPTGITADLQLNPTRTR

`OC[C@H]1O[C@@H](O[C@H]2[C@H](O)[C@@H](O)C(O)O[C@@H]2CO)[C@H](O)[C@@H](O)[C@@H]1O` (stereo partly drawn) [Cellobiose, reference compound]: the Maltase inhibition rate in assay [1] (200 mg/dl) came out at 2.8%. Further, the inhibition at 2000 µg/mL in assay [2] (setting [3]) was -0.4%.

Turning to `O=C[C@@H](O)[C@H](O)[C@H](O)CO` [D-Arabinose, D-arabinose, reference compound], the “maltase-inhibiting action (in words)” value in assay [1] is reported as “no or little inhibiting action”. For the same compound, the Maltase inhibition rate in assay [1] (200 mg/dl) stood at 7.8%. Also, the “sucrase-inhibiting action (in words)” value in assay [2] is listed as “no or little inhibiting action”. The inhibition at 500 µg/mL in assay [2] (50 mg/dl, substrate sucrose 20 mM, pH 6.8, 37° C., 15 minutes, read-out: Sucrase inhibition rate) worked out at 4%. The inhibition at 1000 µg/mL in assay [2] (100 mg/dl, substrate sucrose 20 mM, pH 6.8, 37° C., 15 minutes, read-out: Sucrase inhibition rate) is 6.8%. Besides, the inhibition at 2000 µg/mL in assay [2] (setting [3]) is 11.7%.

For the compound `C[C@@H](O)[C@H](O)[C@H](O)[C@@H](O)C=O` [D-Fucose, D-fucose, reference compound], in assay [1], the “maltase-inhibiting action (in words)” value is reported as “no or little inhibiting action”. The Maltase inhibition rate in assay [1] (200 mg/dl) stood at 4.1%. For the same compound, in assay [2], the “sucrase-inhibiting action (in words)” value is on record as “no or little inhibiting action”. The inhibition at 2000 µg/mL in assay [2] (setting [3]) turned out to be 8.7%.

For `N[C@H]1C(O)O[C@H](CO)[C@H](O)[C@@H]1O` (stereo partly drawn) [D-Galactosamine, D-galactosamine, reference compound], the “maltase-inhibiting action (in words)” value in assay [1] is recorded as “no or little inhibiting action”. Moreover, the Maltase inhibition rate in assay [1] (200 mg/dl) is -4.5%. For the same compound, in assay [2], the “sucrase-inhibiting action (in words)” value is recorded as “no or little inhibiting action”. Further, the inhibition at 2000 µg/mL in assay [2] (setting [3]) was -6.5%.

As to `O=C[C@H](O)[C@@H](O)[C@@H](O)[C@H](O)CO` [D-Galactose, D-galactose, reference compound], in assay [1], the “maltase-inhibiting action (in words)” value is recorded as “no or little inhibiting action”. Moreover, the Maltase inhibition rate in assay [1] (50 mg/dl) is recorded as -0.8%. The Maltase inhibition rate in assay [1] (100 mg/dl) worked out at 13.9%. Also, the Maltase inhibition rate in assay [1] (200 mg/dl) came out at 15.3%. The Maltase inhibition rate in assay [1] (400 mg/dl) was 11.8%. Besides, in assay [2], the “sucrase-inhibiting action (in words)” value is reported as “no or little inhibiting action”. Also, in assay [2] (setting [4]), the inhibition at 500 µg/mL was -0.6%, the inhibition at 1000 µg/mL was -0.9%, the inhibition at 2000 µg/mL was 6.4% and the inhibition at 4000 µg/mL was 20.2%.

As to `O=C[C@@H](O)[C@@H](O)[C@H](O)[C@H](O)CO` [D-Mannose, D-mannose, reference compound], in assay [1], the “maltase-inhibiting action (in words)” value is given as “no or little inhibiting action”. For the same compound, the Maltase inhibition rate in assay [1] (50 mg/dl) was determined as 3.2%. Also, the Maltase inhibition rate in assay [1] (100 mg/dl) was 10.6%. Also, the Maltase inhibition rate in assay [1] (200 mg/dl) was determined as 25.1%. The Maltase inhibition rate in assay [1] (400 mg/dl) is on record as 30.4%. Further, in assay [2], the “sucrase-inhibiting action (in words)” value is “no or little inhibiting action”. In addition, in assay [2] (setting [4]), the inhibition at 500 µg/mL was -0.7%, the inhibition at 1000 µg/mL was 12.9%, the inhibition at 2000 µg/mL was found to be 19.3% and the inhibition at 4000 µg/mL is 27.8%.

`O=C[C@@H](O)[C@@H](O)[C@@H](O)[C@H](O)CO` [D-Talose, D-talose, reference compound]: the “maltase-inhibiting action (in words)” value in assay [1] is given as “no or little inhibiting action”. The Maltase inhibition rate in assay [1] (200 mg/dl) was determined as 5.3%. In addition, the “sucrase-inhibiting action (in words)” value in assay [2] is recorded as “no or little inhibiting action”. Further, the inhibition at 2000 µg/mL in assay [2] (setting [4]) is 5.4%.

On to `OC[C@H]1O[C@@H](OC[C@H]2OC(O)[C@H](O)[C@@H](O)[C@@H]2O)[C@H](O)[C@@H](O)[C@@H]1O` (stereo partly drawn) [Gentiobiose, reference compound], for which the Maltase inhibition rate in assay [1] (200 mg/dl) came out at 1.9%. Moreover, in assay [2] (setting [3]), the inhibition at 2000 µg/mL was -2.4%.

`O=C[C@H](O)[C@H](O)[C@@H](O)CO` [L-Lyxose, L-lyxose, reference compound]: the “maltase-inhibiting action (in words)” value in assay [1] is on record as “no or little inhibiting action”. In addition, the Maltase inhibition rate in assay [1] (200 mg/dl) worked out at 10.0%. The “sucrase-inhibiting action (in words)” value in assay [2] is “no or little inhibiting action”. The inhibition at 2000 µg/mL in assay [2] (setting [3]) is -0.2%.

In the case of `O=C(CO)[C@@H](O)[C@H](O)[C@@H](O)CO` [L-Sorbose, L-sorbose, reference compound], the “maltase-inhibiting action (in words)” value in assay [1] is “no or little inhibiting action”. For the same compound, in assay [1] (200 mg/dl), the Maltase inhibition rate was found to be 7.5%. The “sucrase-inhibiting action (in words)” value in assay [2] is reported as “no or little inhibiting action”. The inhibition at 2000 µg/mL in assay [2] (setting [3]) came out at 5.1%.

Regarding `O=C(CO)[C@H](O)[C@@H](O)CO` [L-Xylulose, L-xylulose, reference compound], in assay [1], the “maltase-inhibiting action (in words)” value was “no or little inhibiting action”. The Maltase inhibition rate in assay [1] (200 mg/dl) was 6.4%. Moreover, the “sucrase-inhibiting action (in words)” value in assay [2] is reported as “no or little inhibiting action”. The inhibition at 2000 µg/mL in assay [2] (setting [3]) is 10.8%.

As for `OC[C@H]1O[C@@H](O[C@H]2[C@H](O)[C@H](O)C(O)O[C@@H]2CO)[C@@H](O)[C@@H](O)[C@@H]1O` (stereo partly drawn) [reference compound], in assay [1] (200 mg/dl), the Maltase inhibition rate was found to be 0.6%. In assay [2] (setting [3]), the inhibition at 2000 µg/mL was determined as 0.9%.

Take `OC[C@H]1O[C@@H](O[C@H]2[C@H](O)[C@H](O)[C@H](O[C@H]3[C@H](O)[C@H](O)C(O)O[C@@H]3CO)O[C@@H]2CO)[C@@H](O)[C@@H](O)[C@@H]1O` (stereo partly drawn) [reference compound]: the Maltase inhibition rate in assay [1] (200 mg/dl) is listed as 1.3%. Also, the inhibition at 2000 µg/mL in assay [2] (setting [3]) came to 2%.

`OC[C@H]1O[C@@H](O[C@H]2[C@H](O)[C@H](O)[C@H](O[C@H]3[C@H](O)[C@H](O)[C@H](O[C@H]4[C@H](O)[C@H](O)C(O)O[C@@H]4CO)O[C@@H]3CO)O[C@@H]2CO)[C@@H](O)[C@@H](O)[C@@H]1O` (stereo partly drawn) [reference compound]: in assay [1] (200 mg/dl), the Maltase inhibition rate was 0.7%. For the same compound, the inhibition at 2000 µg/mL in assay [2] (setting [3]) was -0.3%.

On to `OC[C@H]1O[C@@H](O[C@H]2[C@H](O)[C@H](O)[C@H](O[C@H]3[C@H](O)[C@H](O)[C@H](O[C@H]4[C@H](O)[C@H](O)[C@H](O[C@H]5[C@H](O)[C@H](O)C(O)O[C@@H]5CO)O[C@@H]4CO)O[C@@H]3CO)O[C@@H]2CO)[C@@H](O)[C@@H](O)[C@@H]1O` (stereo partly drawn) [reference compound], for which, in assay [1] (200 mg/dl), the Maltase inhibition rate is listed as 3.5%. Further, the inhibition at 2000 µg/mL in assay [2] (setting [3]) stood at 4%.

As to `OC1OC[C@@H](O[C@@H]2OC[C@@H](O)[C@H](O)[C@H]2O)[C@H](O)[C@H]1O` (stereo partly drawn) [reference compound], the Maltase inhibition rate in assay [1] (200 mg/dl) was determined as 5.5%. Further, the inhibition at 2000 µg/mL in assay [2] (setting [3]) came out at 10.7%.

On to `OC1OC[C@@H](O[C@@H]2OC[C@@H](O[C@@H]3OC[C@@H](O)[C@H](O)[C@H]3O)[C@H](O)[C@H]2O)[C@H](O)[C@H]1O` (stereo partly drawn) [reference compound], for which the Maltase inhibition rate in assay [1] (200 mg/dl) is 3.6%. Besides, the inhibition at 2000 µg/mL in assay [2] (setting [3]) turned out to be 2.7%.

Regarding `OC1OC[C@@H](O[C@@H]2OC[C@@H](O[C@@H]3OC[C@@H](O[C@@H]4OC[C@@H](O)[C@H](O)[C@H]4O)[C@H](O)[C@H]3O)[C@H](O)[C@H]2O)[C@H](O)[C@H]1O` (stereo partly drawn) [reference compound], the Maltase inhibition rate in assay [1] (200 mg/dl) stood at 2.0%. The inhibition at 2000 µg/mL in assay [2] (setting [3]) turned out to be 3.5%.

With `OC1OC[C@@H](O[C@@H]2OC[C@@H](O[C@@H]3OC[C@@H](O[C@@H]4OC[C@@H](O[C@@H]5OC[C@@H](O)[C@H](O)[C@H]5O)[C@H](O)[C@H]4O)[C@H](O)[C@H]3O)[C@H](O)[C@H]2O)[C@H](O)[C@H]1O` (stereo partly drawn) [reference compound], in assay [1] (200 mg/dl), the Maltase inhibition rate was found to be 1.5%. Besides, the inhibition at 2000 µg/mL in assay [2] (setting [3]) is -0.5%.

In the case of `OC1OC[C@@H](O[C@@H]2OC[C@@H](O[C@@H]3OC[C@@H](O[C@@H]4OC[C@@H](O[C@@H]5OC[C@@H](O[C@@H]6OC[C@@H](O)[C@H](O)[C@H]6O)[C@H](O)[C@H]5O)[C@H](O)[C@H]4O)[C@H](O)[C@H]3O)[C@H](O)[C@H]2O)[C@H](O)[C@H]1O` (stereo partly drawn) [reference compound], in assay [1] (200 mg/dl), the Maltase inhibition rate is reported as -5.1%. Also, in assay [2] (setting [3]), the inhibition at 2000 µg/mL is -7.9%.
